# Measurements published in PMC7001580 (Nature chemical biology, 2016).
# T1: At2g17340 (Arabidopsis thaliana, UniProt Q949P3)
# T1 sequence (Q949P3 1-367 limits assumed): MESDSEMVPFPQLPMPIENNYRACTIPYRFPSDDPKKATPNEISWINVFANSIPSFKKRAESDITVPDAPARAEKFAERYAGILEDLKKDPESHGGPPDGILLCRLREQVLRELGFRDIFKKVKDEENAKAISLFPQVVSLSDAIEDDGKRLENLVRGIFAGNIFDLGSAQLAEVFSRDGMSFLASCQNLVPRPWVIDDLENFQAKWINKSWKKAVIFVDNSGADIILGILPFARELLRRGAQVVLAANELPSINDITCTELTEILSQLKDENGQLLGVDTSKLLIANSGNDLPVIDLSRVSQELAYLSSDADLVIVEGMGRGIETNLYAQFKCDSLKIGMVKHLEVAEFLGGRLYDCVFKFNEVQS
# T2: PH1575 (Pyrococcus horikoshii, UniProt O59272)
# T2 sequence (O59272 1-287): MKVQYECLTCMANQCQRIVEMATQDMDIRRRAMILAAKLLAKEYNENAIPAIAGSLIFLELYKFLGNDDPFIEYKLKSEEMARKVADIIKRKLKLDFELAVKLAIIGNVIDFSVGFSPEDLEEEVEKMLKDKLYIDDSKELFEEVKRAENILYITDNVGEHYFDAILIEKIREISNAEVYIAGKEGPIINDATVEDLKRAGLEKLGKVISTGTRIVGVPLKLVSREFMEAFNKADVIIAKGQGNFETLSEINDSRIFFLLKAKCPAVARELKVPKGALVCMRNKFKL
# T3: YMR027W (Saccharomyces cerevisiae, UniProt Q04371)
# T3 sequence (Q04371 1-470): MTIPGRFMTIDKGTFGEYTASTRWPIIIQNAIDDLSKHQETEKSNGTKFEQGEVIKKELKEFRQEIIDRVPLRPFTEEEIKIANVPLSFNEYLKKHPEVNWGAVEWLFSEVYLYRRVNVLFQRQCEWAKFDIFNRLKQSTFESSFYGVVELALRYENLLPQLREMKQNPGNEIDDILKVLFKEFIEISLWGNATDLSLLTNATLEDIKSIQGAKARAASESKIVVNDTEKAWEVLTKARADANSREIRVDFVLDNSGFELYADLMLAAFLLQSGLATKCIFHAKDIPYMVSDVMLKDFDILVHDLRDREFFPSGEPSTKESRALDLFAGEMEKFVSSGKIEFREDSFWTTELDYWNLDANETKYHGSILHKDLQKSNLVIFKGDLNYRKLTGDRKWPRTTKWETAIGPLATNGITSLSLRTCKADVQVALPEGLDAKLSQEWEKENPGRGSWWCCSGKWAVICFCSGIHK
# T4: YMR027W (Saccharomyces cerevisiae, UniProt Q04371, D254A)
# T4 sequence (Q04371 1-470 D254A): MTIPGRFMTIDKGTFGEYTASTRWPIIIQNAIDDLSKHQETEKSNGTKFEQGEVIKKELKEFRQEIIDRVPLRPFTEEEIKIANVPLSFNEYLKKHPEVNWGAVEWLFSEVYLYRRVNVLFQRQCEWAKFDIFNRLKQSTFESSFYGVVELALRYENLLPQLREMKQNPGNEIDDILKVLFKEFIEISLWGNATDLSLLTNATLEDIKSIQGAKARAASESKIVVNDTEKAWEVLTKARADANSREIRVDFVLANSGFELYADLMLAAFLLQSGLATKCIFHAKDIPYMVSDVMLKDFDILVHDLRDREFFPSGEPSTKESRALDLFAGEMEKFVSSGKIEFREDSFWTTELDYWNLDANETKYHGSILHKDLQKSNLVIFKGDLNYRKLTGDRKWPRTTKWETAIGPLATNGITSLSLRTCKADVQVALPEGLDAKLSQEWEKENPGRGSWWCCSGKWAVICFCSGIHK
# T5: At2g17340 (Arabidopsis thaliana, UniProt Q949P3, D220A)
# T5 sequence (Q949P3 1-367 D220A limits assumed): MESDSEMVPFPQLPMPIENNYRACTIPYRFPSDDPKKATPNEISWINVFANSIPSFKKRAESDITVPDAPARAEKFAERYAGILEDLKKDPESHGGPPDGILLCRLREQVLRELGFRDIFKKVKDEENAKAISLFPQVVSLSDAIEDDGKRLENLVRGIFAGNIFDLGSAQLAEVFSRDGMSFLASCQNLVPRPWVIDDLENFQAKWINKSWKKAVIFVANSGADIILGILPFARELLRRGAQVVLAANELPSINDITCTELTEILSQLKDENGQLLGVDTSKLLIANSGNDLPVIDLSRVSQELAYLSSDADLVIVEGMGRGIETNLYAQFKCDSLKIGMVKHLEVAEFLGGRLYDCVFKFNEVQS
# T6: At2g17340 (Arabidopsis thaliana, UniProt Q949P3, N221A)
# T6 sequence (Q949P3 1-367 N221A limits assumed): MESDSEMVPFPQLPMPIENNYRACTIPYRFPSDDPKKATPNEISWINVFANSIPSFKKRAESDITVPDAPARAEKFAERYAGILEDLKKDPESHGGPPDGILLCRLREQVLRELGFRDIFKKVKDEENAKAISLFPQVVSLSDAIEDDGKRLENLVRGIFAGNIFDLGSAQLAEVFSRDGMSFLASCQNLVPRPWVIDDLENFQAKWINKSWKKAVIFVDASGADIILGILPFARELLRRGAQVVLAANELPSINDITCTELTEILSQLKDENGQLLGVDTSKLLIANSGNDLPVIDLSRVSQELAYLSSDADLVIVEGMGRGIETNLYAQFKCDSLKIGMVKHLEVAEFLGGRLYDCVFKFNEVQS
# T7: YMR027W (Saccharomyces cerevisiae, UniProt Q04371, N255A)
# T7 sequence (Q04371 1-470 N255A): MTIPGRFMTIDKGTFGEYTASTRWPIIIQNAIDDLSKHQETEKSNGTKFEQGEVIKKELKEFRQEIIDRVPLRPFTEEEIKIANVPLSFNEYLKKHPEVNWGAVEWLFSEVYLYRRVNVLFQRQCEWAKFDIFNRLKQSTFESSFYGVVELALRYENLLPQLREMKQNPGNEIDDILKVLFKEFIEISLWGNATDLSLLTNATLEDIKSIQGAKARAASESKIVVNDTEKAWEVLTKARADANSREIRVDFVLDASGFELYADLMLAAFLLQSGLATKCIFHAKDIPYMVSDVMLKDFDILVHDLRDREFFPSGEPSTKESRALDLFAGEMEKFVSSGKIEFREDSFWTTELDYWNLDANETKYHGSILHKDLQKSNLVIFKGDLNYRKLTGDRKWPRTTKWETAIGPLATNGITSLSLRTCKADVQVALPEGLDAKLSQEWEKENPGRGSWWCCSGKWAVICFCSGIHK
# Legend:
# At2g17340 [1] = biological target: T1, At2g17340; test: phosphate release, Malachite Green, Hill fit; assay type: biochemical; details: 0.2 mM Ni2+, 30 °C; sigmoidal kinetics
# PH1575 = biological target: T2, PH1575; test: phosphate release, Malachite Green, Michaelis-Menten fit; assay type: biochemical; details: Ni2+ as preferred metal
# YMR027W [2] = biological target: T3, YMR027W; test: crystal structure, soaking with […] fructose 6-phosphate, […] Å; assay type: binding; details: Mg2+ bound, pH 5.5; active site; protein pretreated with chymotrypsin
# YMR027W [3] = biological target: T4, YMR027W; test: phosphatase activity compared with wild type; assay type: biochemical; details: alanine mutant of signature residue
# At2g17340 [4] = biological target: T5, At2g17340; test: phosphatase activity compared with wild type; assay type: biochemical; details: alanine mutant of signature residue
# At2g17340 [5] = biological target: T6, At2g17340; test: phosphatase activity compared with wild type; assay type: biochemical; details: alanine mutant of signature residue
# YMR027W [6] = biological target: T7, YMR027W; test: phosphatase activity compared with wild type; assay type: biochemical; details: alanine mutant of signature residue
# SEC = biological target: the molecule itself; test: SEC
molecule,measurement,setting,value
O=P(O)(O)OC[C@H]1OC(O)C[C@@H]1O (some centres unmarked) [2-deoxyribose 5-phosphate],S0.5,At2g17340 [1],At2g17340 showed sigmoidal kinetics with ribose 5-phosphate or 2-deoxyribose 5-phosphate
Nc1nc2c([nH]c(=O)n2[C@H]2C[C@H](O)[C@@H](COP(=O)(O)OP(=O)(O)OP(=O)(O)O)O2)c(=O)[nH]1 [8-oxo-dGTP],kinetic constants,PH1575,the kinetic constants for 8-oxo-dGTP were close to those for ADP
Nc1ncnc2c1ncn2[C@@H]1O[C@H](COP(=O)(O)OP(=O)(O)O)[C@@H](O)[C@H]1O [ADP],kinetic constants,PH1575,the kinetic constants for 8-oxo-dGTP were close to those for ADP
"O=P(O)(O)OC[C@H]1OC(O)(CO)[C@@H](O)[C@@H]1O (some centres unmarked) [F6P, fructose 6-phosphate]","crystal structure, soaking with 10 mM fructose 6-phosphate, 1.77 Å",YMR027W [2],Crystal soaking using YMR027W and the substrate fructose 6-phosphate
"O=[N+]([O-])c1ccc(OP(=O)(O)O)cc1 [pNPP, p-nitrophenyl phosphate]",catalytic activity,YMR027W [3],"signature residues of YMR027W (Asp254, Asn255, and Asp292)"
same,catalytic activity,At2g17340 [4],"At2g17340 (Asp220, Asn221, and Asp256) abolished catalytic activity"
same,catalytic activity,At2g17340 [5],"At2g17340 (Asp220, Asn221, and Asp256) abolished catalytic activity"
same,catalytic activity,YMR027W [6],"signature residues of YMR027W (Asp254, Asn255, and Asp292)"
O=P(O)(O)OC[C@H]1OC(O)[C@H](O)[C@@H]1O (some centres unmarked) [ribose 5-phosphate],S0.5,At2g17340 [1],At2g17340 showed sigmoidal kinetics with ribose 5-phosphate or 2-deoxyribose 5-phosphate
"Archaeoglobus fulgidus DUF89 subfamily I protein AF1104 (enzyme, A. fulgidus) MKISPLCPSCLLGRVYYEAKLVTDDEDLISQCVDESLKILAENYSSRPINAHLATRIHRRVYEILGVEDPYAEVKARANEVARQVLPLAKEIVEGSDDPFKTAVIVSIVGNNFDYGVQGHKVVEEEFRDFLKRKVQEGLKINDTERIKELSSGKVVYLTDNAGEIFFDTLLMKEIKRRCEKLTAVVRGRPIISDATIEDARLARVDKIADELLTNGKGAIGIIMDELPDETRKALEEADLIVAKGMANYECLSDGSLKPIAFLLTAKCEPVARDIGVNVGDMVAKVVE",stoichiometry N,SEC,2
"Pyrococcus horikoshii DUF89 subfamily I protein PH1575 (enzyme, P. horikoshii) MKVQYECLTCMANQCQRIVEMATQDMDIRRRAMILAAKLLAKEYNENAIPAIAGSLIFLELYKFLGNDDPFIEYKLKSEEMARKVADIIKRKLKLDFELAVKLAIIGNVIDFSVGFSPEDLEEEVEKMLKDKLYIDDSKELFEEVKRAENILYITDNVGEHYFDAILIEKIREISNAEVYIAGKEGPIINDATVEDLKRAGLEKLGKVISTGTRIVGVPLKLVSREFMEAFNKADVIIAKGQGNFETLSEINDSRIFFLLKAKCPAVARELKVPKGALVCMRNKFKL",stoichiometry N,SEC,2
